Earlier results as cited in US20230292757A1, “SYNERGISTIC AGROCHEMICAL COMPOSITION COMPRISING DIAMIDES AND PLANT GROWTH REGULATORS” (priority 2020, published 2023).

Tests used:
S. littoralis = details: oral
L. migratoria = details: oral

In the case of `C=C1C[C@]23C[C@@]1(O)CC[C@H]2[C@@]12C=C[C@H](O)[C@@](C)(C(=O)O1)[C@H]2[C@@H]3C(=O)O` [Gibberellic acid (GA3), Gibberellic acid], the food consumption (S. littoralis) is listed as “significant reduction” and the food consumption (L. migratoria) is listed as “significant reduction”.
